# Measurements from the supplement of paper PMC10307832.
# Experiments:
# Assay in all cases: relative viability (nuclei count vs DMSO), 5 days (fraction); higher = more cells survive
# OSI-027 + Decitabine = compound: COc1cccc2cc(-c3nc([C@H]4CC[C@H](C(=O)O)CC4)n4ncnc(N)c34)[nH]c12 [OSI-027] + Nc1ncn([C@H]2C[C@H](O)[C@@H](CO)O2)c(=O)n1 [Decitabine] (partner 2 µM)
# How it was run: (§1)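 Medians of duplicate plates are given as relative viability. That measure is the nuclei count in treated wells divided by the count in vehicle wells. Counts were taken on 4× images of lung cancer cell lines in 1536-well plates, 5 days after pin-tool dosing the day after seeding with one drug alone or a fixed anchor-drug dose plus five library-drug doses (not always all listed) in √10 steps.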
# OSI-027 + Alpelisib = compound: COc1cccc2cc(-c3nc([C@H]4CC[C@H](C(=O)O)CC4)n4ncnc(N)c34)[nH]c12 [OSI-027] + Cc1nc(NC(=O)N2CCC[C@H]2C(N)=O)sc1-c1ccnc(C(C)(C)C(F)(F)F)c1 [Alpelisib] (partner 2 µM)
# How it was run: as §1
# Vemurafenib + Pemetrexed = compound: CCCS(=O)(=O)Nc1ccc(F)c(C(=O)c2c[nH]c3ncc(-c4ccc(Cl)cc4)cc23)c1F [Vemurafenib] + Nc1nc2[nH]cc(CCc3ccc(C(=O)N[C@@H](CCC(=O)O)C(=O)O)cc3)c2c(=O)[nH]1 [Pemetrexed] (partner 0.2 µM)
# How it was run: as §1
# Alpelisib + AZD7762 = compound: Cc1nc(NC(=O)N2CCC[C@H]2C(N)=O)sc1-c1ccnc(C(C)(C)C(F)(F)F)c1 [Alpelisib] + NC(=O)Nc1cc(-c2cccc(F)c2)sc1C(=O)N[C@H]1CCCNC1 [AZD7762] (partner 0.2 µM)
# How it was run: as §1
Cell Line,relative viability (OSI-027 + Decitabine; first compound 0.01 µM),relative viability (OSI-027 + Decitabine; first compound 0.03162 µM),relative viability (OSI-027 + Decitabine; first compound 0.1 µM),relative viability (OSI-027 + Decitabine; first compound 0.3162 µM),relative viability (OSI-027 + Decitabine; first compound 1 µM),relative viability (OSI-027 + Alpelisib; first compound 0.01 µM),relative viability (OSI-027 + Alpelisib; first compound 0.03162 µM),relative viability (OSI-027 + Alpelisib; first compound 0.1 µM),relative viability (OSI-027 + Alpelisib; first compound 0.3162 µM),relative viability (OSI-027 + Alpelisib; first compound 1 µM),relative viability (Vemurafenib + Pemetrexed; first compound 0.03162 µM),relative viability (Vemurafenib + Pemetrexed; first compound 0.1 µM),relative viability (Vemurafenib + Pemetrexed; first compound 0.3162 µM),relative viability (Vemurafenib + Pemetrexed; first compound 1 µM),relative viability (Alpelisib + AZD7762; first compound 0.04 µM),relative viability (Alpelisib + AZD7762; first compound 0.1265 µM),relative viability (Alpelisib + AZD7762; first compound 0.4 µM),relative viability (Alpelisib + AZD7762; first compound 1.265 µM),relative viability (Alpelisib + AZD7762; first compound 4 µM)
NCI-H23,0.296,0.336,0.305,0.278,0.268,0.594,0.54,0.632,0.481,0.295,0.564,0.772,0.622,0.727,0.23,0.211,0.396,0.154,0.224
NCI-H1915,0.25,0.257,0.262,0.26,0.242,1.11,1.12,1.13,0.956,0.605,0.493,0.494,0.434,0.454,0.688,0.713,0.69,0.676,0.611
HOP-62,0.216,0.231,0.252,0.257,0.214,1.13,0.881,0.934,0.81,0.333,0.368,0.318,0.208,0.354,0.607,0.386,1.21,0.651,0.614
H3255,0.736,0.676,0.558,0.513,0.42,0.589,0.731,0.537,0.503,0.376,0.551,,0.515,0.566,0.86,0.88,1.32,0.799,0.864
NCI-H1993,0.53,0.538,0.569,0.432,0.431,0.647,0.646,0.562,0.533,0.655,0.67,,0.642,0.628,0.722,0.656,0.695,0.539,0.472
NCI-H1792,0.587,0.434,0.56,0.499,0.135,1.07,0.517,0.623,0.495,0.188,0.59,0.787,,0.747,0.59,0.534,0.783,0.465,0.36
NCI-H2085,0.545,0.562,0.611,0.52,0.446,0.927,0.925,0.835,0.727,0.592,0.764,0.6,0.585,1.04,0.946,0.781,1.09,0.944,0.865
